Source: patent publication US8697096B2, “Tape preparation comprising etodolac in ionic liquid form” (priority 2007, dated 2014)

What was measured:
[1] = Tissue concentration of etodolac by administration route (oral vs transdermal), leg muscle of rat; type: in vivo; settings: 12 mg/kg etodolac suspended in CMC, FIG. 8
Experimental: In the case of oral administration, four male SD rats (5 weeks old) are used as a group and 12 mg/kg of etodolac suspended in CMC is forced to be taken in by using a probe. The dose is fixed around about 1.1˜1.5 mg/rat. After a lapse of a certain period of time since the forced feeding, an animal is killed by blood removal under anesthesia. Later the leg was amputated, divided into skin and other tissues and the drug concentrations in the muscle tissue and plasma were assayed.
The applied area of the sample was adjusted so that transdermally available amount of etodolac was about 0.7 mg/rat when applied for 24 hours. After a lapse of a certain period of time since the application of the sample, an animal is killed by blood removal under anesthesia. Later the leg was amputated, divided into skin and other tissues and the drug concentrations in the muscle tissue and plasma were assayed.

| SMILES | pKa (physchem) | drug-concentration in the muscle tissue [1] |
| --- | --- | --- |
| CC(O)CN(CC(C)O)CC(C)O (stereo not drawn) [triisopropanolamine] | 8.03 |  |
| CCc1cccc2c3c([nH]c12)C(CC)(CC(=O)O)OCC3 (stereo not drawn) [etodolac] | 4.65 | not increased so much |
